This is an account of results in US5380710A, “Pharmaceutical compositions containing ACTH (1-24) for the therapy of shock conditions and respiratory and cardiocirculatory insufficiences” (priority 1985, dated 1995).

For the experiment, the system named is severe hypotension induced by bleeding (hypovolemic shock), intact rats. The experiment can be described thus: Hypovolemic shock by bleeding in intact rats: mean arterial pressure and survival. Format: in vivo, Wistar rats. The procedure:
Intact and adrenalectomized female Wistar rats (Nossan, Correzzano, Milano, Italy) weighing 250 to 300 g, and intact male Beagle dogs (S. Morini, S. Polo d'Enza, Reggio Emilia, Italy) weighing 10 to 12 kg were used. Following anesthetization and heparinization a common carotid artery and an iliac vein were cannulated in rats, while in dogs a femoral artery and vein were used. Arterial blood pressure was recorded by means of a pressure transducer (Statham P23 Db) connected to a polygraph (Battaglia-Rangoni, Bologna, Italy). In some rats, trachea was cannulated and respiration was recorded by means of a transducer (Statham 10272) connected to the same polygraph. Hypovolemic shock was produced by intermittently withdrawing blood from the venous catheter until mean arterial pressure fell to 16-30 mm Hg. In rats, the volume of blood removed was 2-2.5 ml per 100 g of body weight and approximated to, or even exceeded, 50% of the estimated total blood volume; in dogs, the volume of blood removed was 50-60 ml per kg of body weight. Following bleeding and mean blood pressure stabilization in the range of 16-30 mm Hg, animals were given intravenous bolus of either ACTH (1-24) or naloxone.HCl.

Molecules are shown by their SMILES. Structures can show the parent of a compound that is named as a salt.

Take `C=CCN1CC[C@]23c4c5ccc(O)c4O[C@H]2C(=O)CC[C@@]3(O)[C@H]1C5` [Naloxone.HCl, naloxone.HCl]: the “Mean arterial pressure before bleeding” value (intact rats (5), Naloxone.HCl 1 μg/kg i.v. group, baseline before treatment, m ± S.E.) is 64,60 ± 4,70 mm Hg. The “Mean arterial pressure after bleeding” value (intact rats (5), Naloxone.HCl 1 μg/kg i.v. group, before treatment, m ± S.E.) was 22,00 ± 3,15 mm Hg. The “No. of deaths 60 min. after treatment” value (intact rats (5), bled, 1 μg/kg i.v.) is recorded as 0. Where the note is “intact rats (5), bled, 1 μg/kg i.v., m ± S.E.”, the “Mean arterial pressure 15-30 min. after treatment” value is reported as 58,20 ± 6,12 mm Hg. Also, the “Effect on blood pressure after bleeding” value (rats, bled, 1 mg/kg i.v., within 30 minutes) is “completely restored blood pressure”.
